Experiments:
[1] = system: mRNA of a fragment of the env gene of EIAV; experiment: In vitro translation (wheat-germ extract, 35S-methionine); format: biochemical
Description: The in vitro translation studies were performed as follows. A fragment of DNA from the env gene of EIAV was transcribed with an SP-6 polymerase kit, and the resulting mRNA (approximately 600 bases long) was capped and isolated. The transcribed fragment included the target sequence 5′-[…]-3′ (SEQ ID NO. 3) (the CC-1065 binding site is underlined). The corresponding antisense sequence (using normal phosphodiester chemistry) was 5′-[…]-3′ (SEQ ID NO. 4). Translation was performed with a wheat-germ extract (Promega) in the presence of ^35S-methionine. The mRNA's were divided into approximately 2 μg aliquots, and treated according to the protocols listed for Table 3 below. Treated mRNA was separated from small molecules (such as DMSO and CC-1065) with a Sephadex 50-based NICK column. Translation was carried out in 25 μl of buffer containing the wheat germ translation system; the isolated mRNA; amino acids, including the labelled methionine; and RNAsin, an inhibitor of RNase. The proteins produced were divided into two aliquots. One aliquot was fractionated by SDS-PAGE, followed by autoradiography; and the other was analyzed by scintillation spectrometry. The concentrations of antisense oligomers and CC-1065 in the free-solution chemistries were relatively high compared to the sense target, to optimize duplex formation and drug binding. […] The following pairs were different at the P<0.05 level by Student's t-test (unpaired analysis): 1,5; 2,5; 3,4; 3,5; 4,5.

[2] = system: DNA sense (SEQ ID NO. 1) / DNA-PO antisense duplex (PO-PO); experiment: Duplex strand separation temperature (Tm); format: binding, equine infectious anemia retrovirus; details: for Tm Elevation: highest level of binding obtained
Description: (§1) Samples for determining Tm were also obtained by the above procedures. […] Thus the effects of this agent on Tm were carried out with Distamycin in solution with the duplexes tested.
(§2) Tm's were determined on a Gilford 2400 Spectrophotometer set at 260 nm, with a 4-chamber Peltier-based temperature controller. Temperature was ramped linearly at 0.5° C./min. Absorbance data were acquired with a 12-bit A/D converter, and data were processed with Lotus 123W and SigmaPlot software. Tm values were determined from the plots as the midpoint of the thermal transitions.

[3] = system: DNA sense (SEQ ID NO. 1) / DNA-PS antisense duplex; experiment: Duplex strand separation temperature (Tm); format: binding, equine infectious anemia retrovirus; details: for Tm Elevation: highest level of binding obtained
Description: as §1, §2

Oligo dA - Oligo dT = experiment: Duplex strand separation temperature (Tm); format: binding; details: for Tm Elevation: highest level of binding obtained
Description: as §1, §2

Poly rA - Oligo dT (PO) = experiment: Duplex strand separation temperature (Tm); format: binding; details: for Tm Elevation: highest level of binding obtained
Description: as §1, §2

[4] = system: DNA sense (SEQ ID NO. 1) / DNA-MP antisense duplex (PO-MP); experiment: Binding of drug to duplex (NACS column, A365/A260); set-up: species or system equine infectious anemia retrovirus
Description: (§3) Oligodeoxyribonucleotides were obtained by chemical synthesis through standard techniques on an automated synthesizer located in the Department of Veterinary Microbiology and Parasitology at Louisiana State University. Antisense MP and PS oligonucleotides were obtained from commercial sources, as was synthetic sense RNA. Poly(rA) was obtained from Sigma Chemical Co. CC-1065 was obtained from the Upjohn Company. Oligonucleotides (0.075 μmol-P each) were mixed in 0.36 ml 0.01 M Na cacodylate buffer, pH 7.2, with CC-1065 in dimethyl formamide (0.04 ml), or with dimethylformamide only. (Note that “μmol-P” denotes μmoles of phosphate; i.e., μmoles of nucleotide bases, rather than of oligonucleotides per se.) Incubations of complementary strands, with or without drug, were carried out at 37° C. for 4 hr. In the initial experiments, unbound drug was separated from nucleotide duplexes by ethanol precipitation. Equivalent results were obtained by trapping the oligonucleotides and CC-1065 on NACS-52 columns, and washing first with low-salt buffer and then with buffer containing 1M NaCl. Unbound CC-1065 was completely retained on the column. […] Samples prepared in this manner could be directly used for determination of binding of the drug to the nucleic acid (as measured by the A365/A260 ratio), with the extinction of CC-1065 absorbance at 365 nm taken as 48,000, and the extinction of the nucleic acid absorption at 260 nm based on its composition. Similar approaches were used with the drug U-71,184, with an assumed extinction of 32,000 at 365 nm.
(§4) When methyl phosphonate and synthetic RNA were used, the purities of the crude oligonucleotides were taken to be about 30%, based on the data sheet prepared by the supplier. (The remainder comprised primarily truncated sequences.) Appropriate excess amounts of these agents were included in the reactions to ensure helix formation. The corresponding sense or antisense oligonucleotides were maintained at 0.075 μmol-P in the reaction. […] Unpurified materials were used in these preliminary studies because of the relatively high cost of purified oligoribonucleotides. The majority of the contributions to A260 for these samples should be due to material that was not duplexed.
(§5) Table 1 summarizes binding data obtained from incubations of CC-1065 with nucleotides at greater than stoichiometric levels; the levels used in these experiments were 1 drug molecule/10 nucleotide residues, which is equivalent to 4 drug molecules/20-mer duplex. […] There seemed to be no difference in drug binding between antisense oligonucleotides with a PO and those with a PS backbone. Again, the 5′-AGTTA-3′ sequence on the sense strand was presumably the primary target, and the 3′-AAGTA-5′ on the antisense probe was presumably the secondary target.

[5] = system: DNA sense (SEQ ID NO. 1) / DNA-PO antisense (SEQ ID NO. 2) duplex (PO-PO); experiment: Binding of drug to duplex (NACS column, A365/A260); set-up: species or system equine infectious anemia retrovirus; details: PO-PO; Initial D/N = 0.10
Description: as §3, §4, §5

[6] = system: DNA sense (SEQ ID NO. 1) / DNA-PS antisense duplex (PO-PS); experiment: Binding of drug to duplex (NACS column, A365/A260); set-up: species or system equine infectious anemia retrovirus; details: PO-PS; Initial D/N = 0.10
Description: as §3, §4, §5

Oligo(dA)-Oligo(dT) = experiment: Binding of drug to duplex (NACS column, A365/A260); details: Oligo(dA)-Oligo(dT); Initial D/N = 0.10
Description: as §3, §4, §5

Poly(rA)-Oligo(dT) = experiment: Binding of drug to duplex (NACS column, A365/A260); details: Poly(rA)-Oligo(dT); Initial D/N = 0.10
Description: as §3, §4, §5

[7] = system: DNA sense (SEQ ID NO. 1) / DNA-MP antisense duplex (PO-MP); experiment: Duplex strand separation temperature (Tm); format: binding, equine infectious anemia retrovirus
Description: as §1, §2

For “5′-TGTTGGGTAATAGGGGTTGA-3′ (SEQ ID NO. 4) (chemistry not given here) [antisense]”, the “DPM S-35 ± standard error” value ([1]; 1.95 μg mRNA, antisense about 3 times mRNA sense, CC-1065 3 times antisense, scintillation spectrometry) was 35.225 ± 3.667 DPM, the “Production of the two protein products (autoradiography)” value ([1]; SDS-PAGE, autoradiography, data not shown) was “suppressed production” and the “Effect on translation” value ([1]; in vitro translation of env mRNA fragment) was “partially inhibit translation”.
Cn1cc(NC(=O)c2cc(NC(=O)c3cc(NC=O)cn3C)cn2C)cc1C(=O)NCCC(=N)N [Distamycin, Distamycin A] was tested, and the “Increase in Tm” value ([2]; PO-PO, Distamycin in solution at D/N = 0.1) was 0.7, the “Tm with Distamycin, Ave ± S.D.” value ([2]; PO-PO, Distamycin in solution at D/N = 0.1, in °C (unit assumed)) was 68.7 ± 0.6 and the “Tm Elevation” value ([2]; PO-PO) was 0.7 °C. The “Increase in Tm” value ([3]; PS-PS, Distamycin in solution at D/N = 0.1) was 1.5, the “Tm with Distamycin, Ave ± S.D.” value ([3]; PS-PS, Distamycin in solution at D/N = 0.1, in °C (unit assumed)) was 65.7 ± 1.5 and the “Tm Elevation” value ([3]; PS-PS) was 1.5 °C. For the same molecule, the “Increase in Tm” value (Oligo dA - Oligo dT; dA-dT, Distamycin in solution at D/N = 0.1) was 21.3, the “Tm with Distamycin, Ave ± S.D.” value (Oligo dA - Oligo dT; dA-dT, Distamycin in solution at D/N = 0.1, in °C (unit assumed)) was 78.3 ± 0.6 and the “Tm Elevation” value (Oligo dA - Oligo dT; dA-dT) was 21.3 °C. The “Elevation of Tm” value (Oligo dA - Oligo dT; oligo(dA)-oligo(dT)) was “significant elevation of Tm”, the “Increase in Tm” value (Poly rA - Oligo dT (PO); rA-dT, Distamycin in solution at D/N = 0.1) was 4.0 and the “Tm with Distamycin, Ave ± S.D.” value (Poly rA - Oligo dT (PO); rA-dT, Distamycin in solution at D/N = 0.1, in °C (unit assumed)) was 57.0 ± 0. The “Tm Elevation” value (Poly rA - Oligo dT (PO); rA-dT) was 4.0 °C.
In the case of Cc1c[nH]c2c1C13CC1CN(C(=O)c1cc4cc(NC(=O)c5cc6ccccc6[nH]5)ccc4[nH]1)C3=CC2=O (stereo not drawn) [U-71.184, U-71,184], the “Binding for MP antisense sequences” value ([4]; MP antisense sequences) is reported as “about 1 drug molecule/duplex”, the “Bound D/N” value ([4]; PO-MP, Initial D/N = 0.10) is reported as 0.029 ± 0.001 and the “Bound D/N” value [5] is reported as 0.026 ± 0.004. For the same molecule, the “Bound D/N” value [6] was 0.026 ± 0.001, the “Bound D/N” value (Oligo(dA)-Oligo(dT)) was 0.049 ± 0.001 and the “Bound D/N” value (Poly(rA)-Oligo(dT)) was 0.023 ± 0.001. The “Duplex Strand Separation Temperature” value ([7]; DNA / DNA-MP, drug-bound duplex (Table 6)) was 73.0 ± 1.7, the “Tm Elevation” value ([7]; PO-MP, highest level of binding obtained) was 19.5 °C and the “Duplex Strand Separation Temperature” value ([2]; DNA / DNA-PO, drug-bound duplex (Table 6)) was 75.5 ± 0.7. The “Tm Elevation” value ([2]; PO-PO) was 7.5 °C, the “Duplex Strand Separation Temperature” value ([3]; DNA / DNA-PS, drug-bound duplex (Table 6)) was 73.0 ± 1.4 and the “Tm Elevation” value ([3]; PS-PS) was 8.6 °C. For the same molecule, the “Duplex Strand Separation Temperature” value (Oligo dA - Oligo dT; Oligo dA / Oligo dT, drug-bound duplex (Table 6)) was 86.7 ± 0.6, the “Tm Elevation” value (Oligo dA - Oligo dT; dA-dT) was 29.7 °C and the “Duplex Strand Separation Temperature” value (Poly rA - Oligo dT (PO); Poly rA / Oligo dT (PO), drug-bound duplex (Table 6)) was 54.3 ± 0.6. The “Stabilization of duplexes” value (Poly rA - Oligo dT (PO); poly(rA)-oligo(dT)) was “failure of U-71,184 to stabilize” and the “Tm Elevation” value (Poly rA - Oligo dT (PO); rA-dT) was 1.3 °C.

Reference: patent USRE38169E1, “Hyperstabilizing antisense nucleic acid binding agents” (priority 1993, dated 2003)
